Test system: panel of 484 cancer cell lines
Assay: PRISM cancer cell line profiling, 5 days
Format: cell-based
Parameters: AUC: unit not given beside the values
Procedure: Cancer cell line profiling was performed using the Broad’s PRISM platform. Cell treatment and data analysis were performed as described in Yu et al[42]. Raw Luminex signal was converted to AUC values for each cell line as described. The resulting AUC profile for each compound was modeled against DepMap using the limma package in R[71]. Because hotspot mutation analysis was performed against DepMap, TP53 annotations in Fig. 6c,d are directly from DepMap.

COc1ccc(C2=N[C@@H](c3ccc(Cl)cc3)[C@@H](c3ccc(Cl)cc3)N2C(=O)N2CCNC(=O)C2)c(OC(C)C)c1 [Nutlin-3A]
AUC (NCIH2170_LUNG): 1.154 | AUC (NCIH2172_LUNG): 1.147 | AUC (NCIH2228_LUNG): 1.087 | AUC (NCIH2347_LUNG): 0.9531 | AUC (NCIH2444_LUNG): 1.324 | AUC (NCIH2452_PLEURA): 1.028 | AUC (NCIN87_STOMACH): 1.465 | AUC (NUGC3_STOMACH): 1.1161 | AUC (NUGC4_STOMACH): 0.888 | AUC (OAW42_OVARY): 1.011 | AUC (OC314_OVARY): 0.964 | AUC (OC316_OVARY): 0.9756 | AUC (OE19_OESOPHAGUS): 1.199 | AUC (OE21_OESOPHAGUS): 1.087 | AUC (OE33_OESOPHAGUS): 0.9763 | AUC (ONCODG1_OVARY): 1.1325 | AUC (ONS76_CENTRAL_NERVOUS_SYSTEM): 0.8865 | AUC (OSRC2_KIDNEY): 0.8477 | AUC (OUMS23_LARGE_INTESTINE): 1.065 | AUC (OV56_OVARY): 1.192 | AUC (OVCAR8_OVARY): 1.207 | AUC (OVISE_OVARY): 0.8578 | AUC (OVK18_OVARY): 0.8595 | AUC (OVSAHO_OVARY): 1.156 | AUC (OVTOKO_OVARY): 0.9039 | AUC (PANC1_PANCREAS): 1.1 | AUC (PANC0203_PANCREAS): 1.166 | AUC (PANC0327_PANCREAS): 1.409 | AUC (PANC0403_PANCREAS): 1.138 | AUC (PANC0813_PANCREAS): 1.0676 | AUC (PANC1005_PANCREAS): 1.216 | AUC (PATU8902_PANCREAS): 1.154 | AUC (PATU8988S_PANCREAS): 1.234 | AUC (PATU8988T_PANCREAS): 1.162 | AUC (PC3_PROSTATE): 0.976 | AUC (PC14_LUNG): 1.1376 | AUC (PECAPJ15_UPPER_AERODIGESTIVE_TRACT): 1.095 | AUC (PECAPJ41CLONED2_UPPER_AERODIGESTIVE_TRACT): 1.019 | AUC (PECAPJ49_UPPER_AERODIGESTIVE_TRACT): 1.2004 | AUC (PK1_PANCREAS): 1.122 | AUC (PK45H_PANCREAS): 1.1189 | AUC (PK59_PANCREAS): 1.0633 | AUC (PLCPRF5_LIVER): 1.234 | AUC (PSN1_PANCREAS): 1.126 | AUC (QGP1_PANCREAS): 1.087 | AUC (RCC10RGB_KIDNEY): 0.8832 | AUC (RCM1_LARGE_INTESTINE): 1.202 | AUC (RD_SOFT_TISSUE): 1.042 | AUC (RERFLCAD1_LUNG): 1.147 | AUC (RERFLCAD2_LUNG): 1.183 | AUC (RERFLCAI_LUNG): 1.0697 | AUC (RERFLCKJ_LUNG): 1.11 | AUC (RERFLCMS_LUNG): 1.091 | AUC (RH30_SOFT_TISSUE): 1.041 | AUC (RKN_SOFT_TISSUE): 1.06 | AUC (RKO_LARGE_INTESTINE): 0.9236 | AUC (RL952_ENDOMETRIUM): 0.9689 | AUC (RMGI_OVARY): 0.9145 | AUC (RMUGS_OVARY): 1.151 | AUC (RT4_URINARY_TRACT): 1.199 | AUC (RT112_URINARY_TRACT): 0.9358 | AUC (RVH421_SKIN): 1.087 | AUC (S117_SOFT_TISSUE): 1.193 | AUC (SBC5_LUNG): 1.066 | AUC (SCABER_URINARY_TRACT): 1.156 | AUC (SCC25_UPPER_AERODIGESTIVE_TRACT): 1.213 | AUC (SF126_CENTRAL_NERVOUS_SYSTEM): 0.9298 | AUC (SF295_CENTRAL_NERVOUS_SYSTEM): 1.194 | AUC (SF539_CENTRAL_NERVOUS_SYSTEM): 1.114 | AUC (SH4_SKIN): 0.9981 | AUC (SH10TC_STOMACH): 1.171 | AUC (SIMA_AUTONOMIC_GANGLIA): 1.067 | AUC (SJSA1_BONE): 0.8737 | AUC (SKES1_BONE): 1.109 | AUC (SKHEP1_LIVER): 0.8252 | AUC (SKLU1_LUNG): 1.249 | AUC (SKMEL2_SKIN): 1.0683 | AUC (SKMEL3_SKIN): 1.137 | AUC (SKMEL5_SKIN): 0.8995 | AUC (SKMEL24_SKIN): 0.8575 | AUC (SKMEL30_SKIN): 1.211 | AUC (SKMES1_LUNG): 0.9911 | AUC (SKNAS_AUTONOMIC_GANGLIA): 1.242 | AUC (SKNBE2_AUTONOMIC_GANGLIA): 1.137 | AUC (SKOV3_OVARY): 1.101 | AUC (SKUT1_SOFT_TISSUE): 1.057 | AUC (SNB75_CENTRAL_NERVOUS_SYSTEM): 1.2 | AUC (SNGM_ENDOMETRIUM): 1.197 | AUC (SNU46_UPPER_AERODIGESTIVE_TRACT): 1.125 | AUC (SNU61_LARGE_INTESTINE): 1.275 | AUC (SNU81_LARGE_INTESTINE): 1.088 | AUC (SNU213_PANCREAS): 1.089 | AUC (SNU245_BILIARY_TRACT): 1.207 | AUC (SNU308_BILIARY_TRACT): 1.147 | AUC (SNU398_LIVER): 1.135 | AUC (SNU407_LARGE_INTESTINE): 0.9535 | AUC (SNU410_PANCREAS): 1.257 | AUC (SNU423_LIVER): 0.9946 | AUC (SNU449_LIVER): 1.202 | AUC (SNU466_CENTRAL_NERVOUS_SYSTEM): 1.108 | AUC (SNU601_STOMACH): 1.158 | AUC (SNU668_STOMACH): 0.9614 | AUC (SNU685_ENDOMETRIUM): 1.162 | AUC (SNU719_STOMACH): 1.114 | AUC (SNU738_CENTRAL_NERVOUS_SYSTEM): 1.181 | AUC (SNU761_LIVER): 1.163 | AUC (SNU840_OVARY): 0.883 | AUC (SNU869_BILIARY_TRACT): 1.149 | AUC (SNU886_LIVER): 1.1718 | AUC (SNU1041_UPPER_AERODIGESTIVE_TRACT): 1.098 | AUC (SNU1066_UPPER_AERODIGESTIVE_TRACT): 1.273 | AUC (SNU1076_UPPER_AERODIGESTIVE_TRACT): 1.222 | AUC (SNU1077_ENDOMETRIUM): 1.256 | AUC (SNU1079_BILIARY_TRACT): 1.079 | AUC (SNU1105_CENTRAL_NERVOUS_SYSTEM): 1.1033 | AUC (SNU1196_BILIARY_TRACT): 1.008 | AUC (SNU1214_UPPER_AERODIGESTIVE_TRACT): 1.185 | AUC (SNUC2A_LARGE_INTESTINE): 1.021 | AUC (SNUC4_LARGE_INTESTINE): 0.9159 | AUC (SNUC5_LARGE_INTESTINE): 1.066 | AUC (SQ1_LUNG): 1.1 | AUC (SUIT2_PANCREAS): 1.124 | AUC (SW48_LARGE_INTESTINE): 0.6832 | AUC (SW480_LARGE_INTESTINE): 1.185 | AUC (SW579_THYROID): 1.033 | AUC (SW620_LARGE_INTESTINE): 1.193 | AUC (SW780_URINARY_TRACT): 0.8319 | AUC (SW837_LARGE_INTESTINE): 1.121 | AUC (SW900_LUNG): 1.197 | AUC (SW948_LARGE_INTESTINE): 1.0613 | AUC (SW1088_CENTRAL_NERVOUS_SYSTEM): 1.216 | AUC (SW1271_LUNG): 0.9516 | AUC (SW1353_BONE): 1.036 | AUC (SW1573_LUNG): 0.9119 | AUC (SW1710_URINARY_TRACT): 1.113 | AUC (SW1990_PANCREAS): 1.0624 | AUC (T3M10_LUNG): 1.167 | AUC (T24_URINARY_TRACT): 1.096 | AUC (T47D_BREAST): 1.041 | AUC (T98G_CENTRAL_NERVOUS_SYSTEM): 0.9597 | AUC (TCCPAN2_PANCREAS): 1.066 | AUC (TCCSUP_URINARY_TRACT): 1.257 | AUC (TE1_OESOPHAGUS): 1.118 | AUC (TE4_OESOPHAGUS): 1.169 | AUC (TE5_OESOPHAGUS): 1.116 | AUC (TE6_OESOPHAGUS): 1.1488 | AUC (TE8_OESOPHAGUS): 1.279 | AUC (TE9_OESOPHAGUS): 0.9402 | AUC (TE10_OESOPHAGUS): 1.052 | AUC (TE11_OESOPHAGUS): 1.135 | AUC (TEN_ENDOMETRIUM): 1.229 | AUC (TM31_CENTRAL_NERVOUS_SYSTEM): 1.145 | AUC (TM87_SOFT_TISSUE): 0.8528 | AUC (TOV21G_OVARY): 0.8573 | AUC (TOV112D_OVARY): 1.15 | mean diff. between TP53 functional WT and functional mutant populations (AUC) (TP53 annotation by functional scores of Giacomelli et al.): 0.165 ± 0.011 | AUC (TT2609C02_THYROID): 1.113 | AUC (TT_OESOPHAGUS): 1.115 | AUC (TT_THYROID): 0.8544 | AUC (TUHR4TKB_KIDNEY): 0.8234 | AUC (U2OS_BONE): 0.8753 | AUC (U118MG_CENTRAL_NERVOUS_SYSTEM): 1.124 | AUC (U251MG_CENTRAL_NERVOUS_SYSTEM): 1.1855 | AUC (UACC62_SKIN): 0.841 | AUC (UACC257_SKIN): 0.9099 | AUC (UBLC1_URINARY_TRACT): 1.2 | AUC (UMUC1_URINARY_TRACT): 1.103 | AUC (UO31_KIDNEY): 0.9228 | AUC (VMCUB1_URINARY_TRACT): 1.108 | AUC (VMRCRCW_KIDNEY): 1.098 | AUC (VMRCRCZ_KIDNEY): 1.139 | AUC (WM88_SKIN): 0.8161 | AUC (WM793_SKIN): 0.8713 | AUC (WM983B_SKIN): 0.9957 | AUC (WM1799_SKIN): 0.8817 | AUC (WM2664_SKIN): 0.8653 | AUC (YAPC_PANCREAS): 1.201 | AUC (YD8_UPPER_AERODIGESTIVE_TRACT): 1.226 | AUC (YD10B_UPPER_AERODIGESTIVE_TRACT): 1.17 | AUC (YD15_SALIVARY_GLAND): 1.2 | AUC (YD38_UPPER_AERODIGESTIVE_TRACT): 1.227 | AUC (YH13_CENTRAL_NERVOUS_SYSTEM): 1.109 | AUC (YKG1_CENTRAL_NERVOUS_SYSTEM): 1.146 | AUC (ZR751_BREAST): 1.121

Reference: PMC7093416, “Selective USP7 inhibition elicits cancer cell killing through a p53-dependent mechanism” (Scientific Reports, 2020)
